Holding throughout (type): cell-based
Test [1] concerns the target T1, IDO1 (Homo sapiens, UniProt P14902).
T1 construct: IDO1 protein was induced in U87 cells with IFNg (50 ng/ml) for 24 hours followed by treatment with IDO-PROTAC; endogenous in cells; host or cells: U87 parental cells; GBM43 cells (IFNg-induced)
In words: Western blot: effect of competitors and pathway inhibitors on IDO-PROTAC induced IDO1 degradation. As to conditions: co-treatment with IDO-PROTAC, U87 cells where stated. On the technique in general: In western blotting, separated proteins are transferred to a membrane and probed.

The target in test [2] is T1, IDO1. The test is described as follows: Enzyme-dependent (kynurenine production) and enzyme-independent (phospho-NFkB p65) functions of IDO1 in GBM cells. To be noted: GBM cells (U87, GBM43). The procedure: FIG. 24. […] A & B. Effect of IDO-PROTAC, mutant IDO-PROTAC, and IDO-inhibitor on kynurenine production in U87 & GBM43 cells respective cells. Cells were treated with IDO-PROTAC, mutant IDO-PROTAC, or IDO-inhibitor in the presence of INFg (50 ng/ml) for 24 hours and cell culture supernatants were collected to measure IFNg-induced kynurenine levels using a modified Erlich method. Cells cultured in the absence of IFNg serves as a control group. C. Western blotting analysis to determine the effect of IDO-PROTAC and IDO-inhibitor on IDO1 protein levels, phospho-NFkB (p65) levels, total-NFkB (p65) levels and GAPDH levels in U87 cells. IDO1 protein was induced with IFNg for 24 hours in U87 cells followed by treatment with IDO-PROTAC and IDO-inhibitor for 24 hours at multiple concentrations. D. Western blotting analysis to determine the effect of IDO-PROTAC, mutant IDO-PROTAC, and IDO-inhibitor on IDO1 protein levels, phospho-NFkB (p65) levels, total-NFkB (p65) levels and GAPDH levels in a breast cancer cell line, MDA MB 231. E. Western blotting analysis to determine the effect of IDO-PROTAC on the levels of IDO1 protein, phospho-NFkB (p65), total-NFkB (p65) and GAPDH in U87 IDO1 overexpressing (flag-tagged) cells. Cells were treated with DMSO or IDO-PROTAC (10 uM) for 24 hours prior to protein extraction. U87 parental cells serves as a control group for basal phosphorylation of NFkB. […]

The target in test [3] is T1, IDO1. In words: Western blot of IFNg-induced IDO1 protein levels in GBM43 cells after IDO-PROTAC treatment. To be noted: IFNg (50 ng/ml) 24 hours, then IDO-PROTAC 24 hours. The procedure: (§1) FIG. 20. Discovery of lead IDO-PROTAC to induce IDO1 degradation in cancer cells. A. Schema for screening IDO-PROTAC compounds in U87 cells. […] Percent IFNg-induced IDO1 levels (normalized to untreated samples) were calculated in U87 cells after treating with IDO-PROTAC compounds at 0, 0.1, 1, and 10 uM concentration for 24 hours. C. […] IDO1 was induced in U87 and GBM43 cells with IFNg (50 ng/ml) for 24 hours followed by treatment with IDO-PROTAC for 24 hours before protein samples were prepared for western blotting analysis. D. Percent normalized IDO1 protein levels in U87 and GBM43 cells (from panel C) after treating with lead IDO-PROTAC (NU223612) for 24 hours. E & F. Testing moderate and poor IDO-PROTAC compounds on IDO1 protein levels in U87 cells. […] Structures of IDO-PROTAC (I), mutant IDO-PROTAC (J), and parental compound (K).

In test [4] the target is T1, IDO1. In words: Western blot of IFNg-induced IDO1 protein levels in U87 cells after IDO-PROTAC treatment. As to conditions: IFNg (50 ng/ml) 24 hours, then IDO-PROTAC 24 hours. Here is the method: FIG. 2. Screening method for PROTAC-induced degradation of IDO1 using INFg-treated U87 parental cells.
as §1
FIG. 27. Representative western blots to identify a lead IDO-PROTAC in U87 cells. IDO1 protein was induced in U87 cells with IFNg (50 ng/ml) for 24 hours followed by treatment with IDO-PROTAC at 0, 0.1, 1, and 10 uM for 24 hours before protein samples were prepared for western blotting analysis of IDO1 and GAPDH.

Four compounds from patent US11839659B2, “Proteolysis-targeting chimeric molecules (PROTACs) that induce degradation of indoleamine 2,3-dioxygenase (IDO) protein” (Northwestern University, priority 2020, dated 2023) can be followed below.

“Also recorded” adds a separate entry of the source. Peptide text beside a SMILES is read from it. * marks the point of attachment. Cbz = O=C(OCc1ccccc1)*

T1 sequence (P14902 whole entry): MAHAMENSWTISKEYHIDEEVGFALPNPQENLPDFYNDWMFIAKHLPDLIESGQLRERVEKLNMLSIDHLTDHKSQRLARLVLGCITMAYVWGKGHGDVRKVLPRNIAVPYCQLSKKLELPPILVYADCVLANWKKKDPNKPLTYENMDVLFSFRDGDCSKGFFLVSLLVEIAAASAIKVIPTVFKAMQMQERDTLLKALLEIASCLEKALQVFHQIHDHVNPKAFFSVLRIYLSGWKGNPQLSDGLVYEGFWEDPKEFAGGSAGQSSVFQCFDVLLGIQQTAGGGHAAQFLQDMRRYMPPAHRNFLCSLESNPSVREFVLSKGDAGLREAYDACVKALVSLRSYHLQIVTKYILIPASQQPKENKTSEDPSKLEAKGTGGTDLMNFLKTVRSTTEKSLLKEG

As to `CC(C)C[C@@H](C=O)NC(=O)[C@H](CC(C)C)NC(=O)[C@H](CC(C)C)NC(=O)OCc1ccccc1` [MG132] (Cbz-Leu-Leu-Leu-aldehyde), the “Effect on NU223612 (IDO-PROTAC) induced IDO1 degradation” value (from here on “Effect on NU223612”) on IDO1 [1] is “blocks NU223612 induced IDO1 degradation; also recorded: blocks IDO-PROTAC-induced IDO1 degradation”. On to `NS(=O)(=O)OC[C@@H]1C[C@@H](n2ccc3c(N[C@H]4CCc5ccccc54)ncnc32)C[C@@H]1O` [MLN4924], for which the “Effect on NU223612” value on IDO1 [1] is listed as “blocks IDO-PROTAC-induced IDO1 degradation”. On to `C[C@@H](C(=O)Nc1ccc(OC2CCN(C(=O)CCOCCOCCNc3cccc4c3C(=O)N(C3CCC(=O)NC3=O)C4=O)CC2)cc1)[C@H]1CC[C@@H](c2ccnc3ccc(F)cc32)CC1` (stereo partly shown) [NU223612], for which the “Effect on enzyme-dependent and enzyme-independent functions of IDO1” value on IDO1 [2] is “inhibits both enzyme-dependent and enzyme-independent functions of IDO1”. Moreover, the “IDO1 degradation (western blot)” value at IDO1 [3] and at IDO1 [4] was “induced IDO1 degradation” throughout. Turning to `Nc1cccc2c1C(=O)N(C1CCC(=O)NC1=O)C2=O` (stereo not shown) [Pomalidomide], the “Effect on NU223612” value on IDO1 [1] is given as “blocks IDO-PROTAC-induced IDO1 degradation”; on IDO1 [1] (listed as CRBN ligand) it was “blocks NU223612 induced IDO1 degradation”.
